According to patent publication US9976141B2, “Compositions and methods for inhibiting gene expression of Hif2alpha” (Arrowhead Madison Inc., priority 2015, dated 2018):
Strand notation (5' to 3'): a small letter for the sugar, then the base; units joined by * are phosphorothioate-linked, units joined directly phosphodiester-linked; [ ] holds rarer units or linkages, { } end groups; capitals alone tell only the bases. [UNA-N] = unlocked nucleic acid (N: the base); [invdT] = inverted (3'-3') thymidine; d = 2'-deoxy (DNA); m = 2'-O-methyl; f = 2'-fluoro

How the values were obtained:
[1] = tested on: human (tumor) Hif2α (EPAS1) mRNA; assay: HiF2α RNAi trigger/sunitinib combination study: HiF2α expression in RCC tumors (Table 10A); format: in vivo; conditions: 4 doses, 3 cycles
Protocol: Female athymic nude mice were anesthetized with ˜3% isoflourane and placed in the right lateral decubitus position. A small, 0.5-1 cm, longitudinally abdominal incision in the left flank was made. Using a moist cotton swab, the left kidney was lifted out of the peritoneum and gently stabilized. Just before injection, a 1.0 ml syringe was filled with the cell/Matrigel mixture and a 27 gauge needle catheter was attached to the syringe tip. The filled syringe was then attached to a syringe pump (Harvard Apparatus, model PHD2000) and primed to remove air. The tip of a 27-gauge needle catheter attached to a syringe was inserted just below the renal capsule near the caudal pole and the tip of the needle was then carefully advanced cranially along the capsule 3-4 mm. […]
In preparation for quantitative PCR, total RNA was isolated from tissue samples homogenized in TriReagent (Molecular Research Center, Cincinnati, Ohio) following the manufacturer's protocol. […] Quantitative PCR was performed by using a 7500 Fast or StepOnePlus Real-Time PCR system (Life Technologies). […]
Tumor growth rates were evaluated by serum SEAP collected at 5-7 days interval during treatment. Tumor weight and volume was determined at necropsy. Gross tumor morphology and H&E histopathology were evaluated.

[2] = tested on: A498-SEAP ccRCC orthotopic kidney tumor; assay: HiF2α RNAi trigger/sunitinib combination study: tumor size and SEAP expression (Table 10B); format: in vivo, mice; conditions: trigger = Duplex AD1884 with polymer 064 (125 μg polymer) iv every 4 weeks, 4 doses, sunitinib oral gavage, 3 cycles
[3] = tested on: human EPAS1 (Hif2α) cDNA in psiCHECK2 (Renilla luciferase/EPAS1 fusion mRNA) in Hep3B cells; assay: Hif2α RNAi trigger EC50 determination, dual-luciferase reporter assay; format: cell-based; conditions: UNA modified at site 6 or 7, EPAS1-psiCHECK2, same conditions, read-out: EC50 UNAs EC50
Excerpt: Candidate sequences were identified by in silico analysis and screened as chemically modified canonical siRNAs in vitro. For screening purposes, the human EPAS1 (Hif2α) cDNA sequence (accession #NM 001430) was synthesized and cloned (DNA 2.0, Menlo Park, Calif.) into a commercially-available reporter-based screening plasmid, psiCHECK2 (Promega, Madison, Wis.) which generated a Renilla luciferase/EPAS1 fusion mRNA. For RNAi trigger efficacy evaluation, Hep3B cells, a human hepatocellular carcinoma line, were plated at 10,000 cells per well in 96-well format. Each of the 187 EPAS1 RNAi triggers, in two subsets, was co-transfected at two concentrations, 1 nM and 0.1 nM, with 25 ng EPAS1-psiCHECK2 plasmid DNA per well and 0.2 μL LipoFectamine 2000 (Life Technologies) per well. Gene knockdown was determined by measuring Renilla luciferase levels normalized to the levels of constitutively-expressed firefly luciferase, also present on the psiCHECK-2 plasmid, using the Dual Luciferase Reporter Assay (Promega, Madison, Wis.) Table 5.
The eight best canonical sequences were further evaluated by determining the EC50 concentration. Each trigger was assessed for knockdown under the same conditions and assays as above, but at 10 different concentrations ranging from 0.00051 nM to 10 nM. EC50 were determined using GraphPad Prism software. Each of the top five canonical sequences were modified to contain UNA at sites 6 and 7. These triggers, along with their parent canonical sequences, were evaluated side-by-side for EC50 concentration determination using the same conditions and assays as above, Table 6.

[4] = tested on: human (tumor) Hif2α (EPAS1) mRNA; assay: Hif2α knockdown in orthotopic RCC tumor bearing mice, single injection of RNAi trigger-delivery polymer conjugate, RT-qPCR (Table 7); format: in vivo; conditions: RNAi trigger 80 μg, polymer 126 400 μg; single tail vein injection; relative to isotonic glucose
Summary of the method: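 A single intravenous dose of Hif2α RNAi trigger–delivery polymer conjugate, or isotonic glucose vehicle, was given to nude mice with subcapsular A498-SEAP renal tumours (about 5–6 weeks old). At the indicated time, tumour RNA was assayed by biplex TaqMan qPCR against CycA, and relative expression was calculated by ΔΔCT versus vehicle.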

[5] = tested on: human (tumor) Hif2α (EPAS1) mRNA; assay: Hif2α expression in RCC tumor bearing mice after single injection of RGD targeted conjugates, 72 h, RT-qPCR (Table 11); format: in vivo; conditions: trigger 80 μg, polymer 126 280 μg
Protocol: Female athymic nude mice were anesthetized with ˜3% isoflourane and placed in the right lateral decubitus position. A small, 0.5-1 cm, longitudinally abdominal incision in the left flank was made. Using a moist cotton swab, the left kidney was lifted out of the peritoneum and gently stabilized. Just before injection, a 1.0 ml syringe was filled with the cell/Matrigel mixture and a 27 gauge needle catheter was attached to the syringe tip. The filled syringe was then attached to a syringe pump (Harvard Apparatus, model PHD2000) and primed to remove air. The tip of a 27-gauge needle catheter attached to a syringe was inserted just below the renal capsule near the caudal pole and the tip of the needle was then carefully advanced cranially along the capsule 3-4 mm. A 10 μl aliquot of 2:1 (vol:vol) cell/matrigel mixture containing about 300,000 cells was slowly injected into the kidney parenchyma using a syringe pump. The needle was left in the kidney for 15-20 seconds to ensure the injection was complete. The needle was then removed from the kidney and a cotton swab was placed over the injection site for 30 seconds to prevent leakage of the cells or bleeding. The kidney was then gently placed back into the abdomen and the abdominal wall was closed. Serum was collected every 7-14 days after implantation to monitor tumor growth using a commercial SEAP assay kit. For most studies, tumor mice were used 5-6 weeks after implantation, when tumor measurements were typically around 4-8 mm.
In preparation for quantitative PCR, total RNA was isolated from tissue samples homogenized in TriReagent (Molecular Research Center, Cincinnati, Ohio) following the manufacturer's protocol. Approximately 500 ng RNA was reverse-transcribed using the High Capacity cDNA Reverse Transcription Kit (Life Technologies). For human (tumor) Hif2α (EPAS1) expression, pre-manufactured TaqMan gene expression assays for human Hif2α (Catalog #4331182) and CycA (PPIA) Catalog #: 4326316E) were used in biplex reactions in triplicate using TaqMan Gene Expression Master Mix (Life Technologies) or VeriQuest Probe Master Mix (Affymetrix). For human (tumor) VegFa (VEGFA) expression, pre-manufactured TaqMan gene expression assays for human VegFa (Catalog #4331182, Assay ID: Hs00900055) and CycA (Part#: 4326316E) were used in biplex reactions in triplicate using TaqMan Gene Expression Master Mix (Life Technologies) or VeriQuest Probe Master Mix (Affymetrix). Quantitative PCR was performed by using a 7500 Fast or StepOnePlus Real-Time PCR system (Life Technologies). The ΔΔCT method was used to calculate relative gene expression.
RGD targeted HiF2α-RNAi trigger delivery polymer conjugates were formed using polymer 126, 100A, or 006. The RNAi trigger, μg indicates the quantity of trigger reacted with polymer. The polymer was modified with the indicated RGD mimic and PEG modifying agents as described above. Kidney RCC tumor-bearing mice were generated as described and treated with a single tail vein injection of isotonic glucose (G1) or the indicated Hif2α RNAi trigger-delivery polymer conjugate. Mice were euthanized 72 h (day 4) after injection and total RNA was prepared from kidney tumor using Trizol reagent following manufacturer's recommendation. Relative HiF2α mRNA levels were determined by RT-qPCR as described and compared to mice treated with delivery buffer (isotonic glucose) only (Table 11).

Compound	EC50 [3] [pM]	further results
CCN(CC)CCNC(=O)c1c(C)[nH]c(/C=C2\C(=O)Nc3ccc(F)cc32)c1C [sunitinib, Sunitinib]	–	Relative HiF2α expression levels decreased ([1]; DPC 125 μg polymer iv every 4 weeks, sunitinib oral gavage 5 days/week 2 weeks on, 2 weeks off): 11.4%; HiF2α expression, Relative expression ([1]; trigger = Duplex AD1884 with polymer 064 (125 μg polymer) iv every 4 weeks, sunitinib oral gavage 5 days/week, 2 weeks on/2 off): 0.886; Tumor volume ([2]; at necropsy): 2113.5 ± 368 mm3; Tumor weight ([2]; at necropsy): 2385.7 ± 845 mg; Fold increase in SEAP ([2]; serum SEAP, overall): 18.1 ± 9.8
AD00988: Hif2α RNAi trigger, XD-02335 sequence modified to contain UNA at site 6 (antisense dTfGmUfAmA[UNA-A]mAfCmAfAmUfUmGfUmGfUmAfCmUdT*dT; sense fAmGfUmAfCmAfCmAfAmUfUmGfUmUfUmUfAmCfA[invdT])	841	–
AD00989: Hif2α RNAi trigger, XD-02371 sequence modified to contain UNA at site 6 (antisense dTfCmUfAmG[UNA-C]mAfAmCfAmAfAmAfCmCfUmUfAmAdT*dT; sense fUmUfAmAfGmGfUmUfUmUfGmUfUmGfCmUfAmGfA[invdT])	375	–
AD00990: Hif2α RNAi trigger, XD-02404 sequence modified to contain UNA at site 6 (antisense dTfAmAfAmU[UNA-C]mGfUmUfAmCfGmUfUmGfAmCfAmGdT*dT; sense dTfGmAfGmGfAmGfCmUfUmGfUmGfUmGfUmUfCmGdT*dT)	153	–
AD00991: Hif2α RNAi trigger, XD-02407 sequence modified to contain UNA at site 6 (antisense dTfUmUfCmA[UNA-U]mGfAmAfAmUfCmGfUmUfAmCfGmUdT*dT; sense fAmCfGmUfAmAfCmGfAmUfUmUfCmAfUmGfAmAfA[invdT])	350	–
AD00992: Hif2α RNAi trigger, XD-02415 sequence modified to contain UNA at site 6 (antisense dTfAmAfGmU[UNA-U]mAfAmGfCmUfCmCfCmAfUmAfCmAdT*dT; sense fUmGfUmAfUmGfGmGfAmGfCmUfUmAfAmCfUmUfA[invdT])	142	–
AD00993: Hif2α RNAi trigger, XD-02335 sequence modified to contain UNA at site 7 (antisense dTfGmUfAmAfA[UNA-A]fCmAfAmUfUmGfUmGfUmAfCmUdT*dT; sense fAmGfUmAfCmAfCmAfAmUfUmGfUmUfUmUfAmCfA[invdT])	550	–
AD00994: Hif2α RNAi trigger, XD-02371 sequence modified to contain UNA at site 7 (antisense dTfCmUfAmGfC[UNA-A]fAmCfAmAfAmAfCmCfUmUfAmAdT*dT; sense fUmUfAmAfGmGfUmUfUmUfGmUfUmGfCmUfAmGfA[invdT])	80.7	–
AD00995: Hif2α RNAi trigger, XD-02404 sequence modified to contain UNA at site 7 (antisense dTfAmAfAmUfC[UNA-G]fUmUfAmCfGmUfUmGfAmCfAmGdT*dT; sense dTfGmAfGmGfAmGfCmUfUmGfUmGfUmGfUmUfCmGdT*dT)	169	–
AD00996: Hif2α RNAi trigger, XD-02407 sequence modified to contain UNA at site 7 (antisense dTfUmUfCmAfU[UNA-G]fAmAfAmUfCmGfUmUfAmCfGmUdT*dT; sense fAmCfGmUfAmAfCmGfAmUfUmUfCmAfUmGfAmAfA[invdT])	118	–
AD00997: Hif2α RNAi trigger, XD-02415 sequence modified to contain UNA at site 7 (antisense dTfAmAfGmUfU[UNA-A]fAmGfCmUfCmCfCmAfUmAfCmAdT*dT; sense fUmGfUmAfUmGfGmGfAmGfCmUfUmAfAmCfUmUfA[invdT])	183	–
AD01031: Hif2α RNAi trigger duplex used in the multi-dose conjugate of Example 15 (antisense TUUCAUGAAAUCGUUACGUTT; sense ACGUAACGAUUUCAUGAAAT; Hif2alpha RNAi agent antisense strand; modified_base 2,4,6,8,10,12,14,16,18 /mod_base = “2′-deoxy-2′-fluoro corresponding nucleoside”; modified_base 3,5,7,9,11,13,15,17,19 /mod_base = “2′-O-methyl corresponding nucleoside”; modified_base 21 /mod_base = “5′-phosphorothioate corresponding nucleotide”; Hif2alpha RNAi agent sense strand; modified_base 1,3,5,7,9,11,13,15,17,19 /mod_base = “2′-deoxy-2′-fluoro corresponding nucleoside”; modified_base 2,4,6,8,10,12,14,16,18 /mod_base = “2′-O-methyl corresponding nucleoside”; modified_base 20 /mod_base = “3′-3′-linked nucleotide”; modified_base 1 /mo)	–	Relative Expression day 4 (Hif2α mRNA in kidney tumor) [4]: 0.20; Relative Expression day 4 (Hif2α) ([5]; RGD-PEG8-ACit-PABC-PNP 0.4×, PEG6-ACit-PABC-PNP): 0.311; Relative Expression day 4 (Hif2α) ([5]; RGD-PEG8-HyNic 0.5×, PEG12-ACit-PABC-PNP): 0.300
